Biological target: P. falciparum apicoplast DNA polymerase (Pf-apPOL) (Plasmodium falciparum, UniProt Q8ILY1)
Assay: Fluorescence-based high-throughput DNA polymerase assay (molecular beacon), primary screen and dose-response;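 on % inhibition ApPOL 90': test concentration in µM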;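 on % inhibition apPOL 180': test concentration in µM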
Type: biochemical
Outline: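 Single-point screening used 10 µM compound with 20 nM polymerase, 20 nM hairpin substrate and 6 µM dNTPs for 90 min at 25 °C. Confirmatory titrations (2.5–80 µM) followed fluorescence at three times, and IC50 was derived from a fit including a cooperativity term n.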

Chain of P. falciparum apicoplast DNA polymerase (Pf-apPOL) (Q8ILY1 entry or part of it): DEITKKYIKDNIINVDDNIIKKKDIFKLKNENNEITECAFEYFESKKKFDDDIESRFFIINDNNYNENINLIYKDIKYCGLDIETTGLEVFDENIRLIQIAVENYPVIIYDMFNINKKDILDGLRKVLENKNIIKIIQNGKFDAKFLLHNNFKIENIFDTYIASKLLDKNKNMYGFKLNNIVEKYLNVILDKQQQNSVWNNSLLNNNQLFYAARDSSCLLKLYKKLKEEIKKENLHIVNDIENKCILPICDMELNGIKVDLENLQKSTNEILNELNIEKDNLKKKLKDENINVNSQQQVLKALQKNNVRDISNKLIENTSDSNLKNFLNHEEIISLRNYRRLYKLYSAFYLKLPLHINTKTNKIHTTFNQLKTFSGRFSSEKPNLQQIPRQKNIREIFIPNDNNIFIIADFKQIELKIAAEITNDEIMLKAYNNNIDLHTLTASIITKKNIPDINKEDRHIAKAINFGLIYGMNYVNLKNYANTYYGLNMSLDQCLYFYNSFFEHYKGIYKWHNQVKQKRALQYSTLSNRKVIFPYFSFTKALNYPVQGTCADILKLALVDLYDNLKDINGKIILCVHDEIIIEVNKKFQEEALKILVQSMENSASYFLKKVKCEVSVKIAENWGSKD

CN1CC(=Cc2ccco2)C(=O)C(=Cc2ccco2)C1 [Molecule 65, CN1CC(=Cc2ccco2)C(=O)C(=Cc2ccco2)C1]
DNA Pol ('DNA Pol'; screening value, unit not given; 90 min, 10 µM): 69
% inhibition Apo pol 10' (DRC-1; 10'; concentration 2.5): 22.1284%
% inhibition Apo pol 10' (DRC-1; 10'; concentration 5): 42.6789%
% inhibition Apo pol 10' (DRC-1; 10'; concentration 10): 54.6654%
% inhibition Apo pol 10' (DRC-1; 10'; concentration 20): 60.4298%
% inhibition Apo pol 10' (DRC-1; 10'; concentration 40): 67.6613%
% inhibition Apo pol 10' (DRC-1; 10'; concentration 80): 69.4432%
% inhibition Apol 90' (DRC-1; 90'; concentration 2.5): 10.4669%
% inhibition Apol 90' (DRC-1; 90'; concentration 5): 22.0675%
% inhibition Apol 90' (DRC-1; 90'; concentration 10): 32.2145%
% inhibition Apol 90' (DRC-1; 90'; concentration 20): 39.744%
% inhibition Apol 90' (DRC-1; 90'; concentration 40): 50.5992%
% inhibition Apol 90' (DRC-1; 90'; concentration 80): 58.0625%
% inhibition apPOL 180' (DRC-1; 180'; concentration 2.5): 4.595%
% inhibition apPOL 180' (DRC-1; 180'; concentration 5): 8.893%
% inhibition apPOL 180' (DRC-1; 180'; concentration 10): 17.702%
% inhibition apPOL 180' (DRC-1; 180'; concentration 20): 24.3352%
% inhibition apPOL 180' (DRC-1; 180'; concentration 40): 38.0441%
% inhibition apPOL 180' (DRC-1; 180'; concentration 80): 50.1748%
% inhibition Apo pol 5' (DRC-2, 5', concentration 2.5): 27%
% inhibition Apo pol 5' (DRC-2, 5', concentration 5): 34%
% inhibition Apo pol 5' (DRC-2, 5', concentration 10): 42%
% inhibition Apo pol 5' (DRC-2, 5', concentration 20): 45%
% inhibition Apo pol 5' (DRC-2, 5', concentration 40): 49%
% inhibition Apo pol 5' (DRC-2, 5', concentration 80): 47%
% inhibition Apol 40' (DRC-2, 40', concentration 2.5): 21%
% inhibition Apol 40' (DRC-2, 40', concentration 5): 27%
% inhibition Apol 40' (DRC-2, 40', concentration 10): 37%
% inhibition Apol 40' (DRC-2, 40', concentration 20): 43%
% inhibition Apol 40' (DRC-2, 40', concentration 40): 52%
% inhibition Apol 40' (DRC-2, 40', concentration 80): 55%
% inhibition ApPOL 90' (DRC-2, 90', concentration 2.5): 17%
% inhibition ApPOL 90' (DRC-2, 90', concentration 5): 21%
% inhibition ApPOL 90' (DRC-2, 90', concentration 10): 32%
% inhibition ApPOL 90' (DRC-2, 90', concentration 20): 38%
% inhibition ApPOL 90' (DRC-2, 90', concentration 40): 50%
% inhibition ApPOL 90' (DRC-2, 90', concentration 80): 56%
% inhibition apPOL 180' (DRC-2, 180', concentration 2.5): 8%
% inhibition apPOL 180' (DRC-2, 180', concentration 5): 8%
% inhibition apPOL 180' (DRC-2, 180', concentration 10): 20%
% inhibition apPOL 180' (DRC-2, 180', concentration 20): 28%
% inhibition apPOL 180' (DRC-2, 180', concentration 40): 42%
% inhibition apPOL 180' (DRC-2, 180', concentration 80): 54%
% inhibition Apo pol 5' (conc 2.5 (unit not given); 5'; DRC-2): 27%
% inhibition Apol 40' (conc 2.5 (unit not given); 40'; DRC-2): 21%
% inhibition apPOL 180' (conc 2.5 (unit not given); 180'; DRC-2): 8%
% inhibition Apol 40' (conc 5 (unit not given); 40'; DRC-2): 27%
% inhibition ApPOL 90' (conc 5 (unit not given); 90'; DRC-2): 21%
% inhibition apPOL 180' (conc 5 (unit not given); 180'; DRC-2): 8%
% inhibition Apo pol 5' (conc 10 (unit not given); 5'; DRC-2): 42%
% inhibition apPOL 180' (conc 40 (unit not given); 180'; DRC-2): 42%
DNA Pol (primary screen hit value, DNA Pol (186 hits); 90 min, 10 µM): 69

CCc1ccccc1NC(=O)c1ccc(-c2ncccc2NC(C)=O)cc1 [KU0203112]
% inhibition Apo pol 10' (DRC-1; concentration 2.5; 10'): 16.2237%
% inhibition Apol 90' (DRC-1; concentration 2.5; 90'): 2.255%
% inhibition apPOL 180' (DRC-1; concentration 2.5; 180'): -4.969%
% inhibition Apo pol 10' (DRC-1; concentration 5; 10'): 20.5956%
% inhibition Apol 90' (DRC-1; concentration 5; 90'): 6.528%
% inhibition apPOL 180' (DRC-1; concentration 5; 180'): -1.7806%
% inhibition Apo pol 10' (DRC-1; concentration 10; 10'): 40.7013%
% inhibition Apol 90' (DRC-1; concentration 10; 90'): 22.2992%
% inhibition apPOL 180' (DRC-1; concentration 10; 180'): 9.63%
% inhibition Apo pol 10' (DRC-1; concentration 20; 10'): 66.0159%
% inhibition Apol 90' (DRC-1; concentration 20; 90'): 44.8534%
% inhibition apPOL 180' (DRC-1; concentration 20; 180'): 25.9288%
% inhibition Apo pol 10' (DRC-1; concentration 40; 10'): 83.2179%
% inhibition Apol 90' (DRC-1; concentration 40; 90'): 72.954%
% inhibition apPOL 180' (DRC-1; concentration 40; 180'): 58.4495%
% inhibition Apo pol 10' (DRC-1; concentration 80 (unit not given); 10'): 89.6121%
% inhibition Apol 90' (DRC-1; concentration 80; 90'): 90.3611%
% inhibition apPOL 180' (DRC-1; concentration 80; 180'): 89.009%
% inhibition ApPOL 90' (DRC-2; 90'; concentration 40): 70%
% inhibition apPOL 180' (DRC-2; 180'; concentration 40): 70%
% inhibition Apo pol 5' (DRC-2; concentration 2.5; 5'): 0.547%
% inhibition Apol 40' (DRC-2; concentration 2.5; 40'): 0.556%
% inhibition ApPOL 90' (DRC-2; concentration 2.5; 90'): -1.65%
% inhibition apPOL 180' (DRC-2; concentration 2.5; 180'): -5.44%
% inhibition Apo pol 5' (DRC-2; concentration 5; 5'): 5.51%
% inhibition Apol 40' (DRC-2; concentration 5; 40'): 7%
% inhibition ApPOL 90' (DRC-2; concentration 5; 90'): 5.44%
% inhibition apPOL 180' (DRC-2; concentration 5; 180'): -1.68%
% inhibition Apo pol 5' (DRC-2; concentration 10; 5'): 27%
% inhibition Apol 40' (DRC-2; concentration 10; 40'): 28%
% inhibition ApPOL 90' (DRC-2; concentration 10; 90'): 25%
% inhibition apPOL 180' (DRC-2; concentration 10; 180'): 14%
% inhibition Apo pol 5' (DRC-2; concentration 20; 5'): 43%
% inhibition Apol 40' (DRC-2; concentration 20; 40'): 54%
% inhibition ApPOL 90' (DRC-2; concentration 20; 90'): 52%
% inhibition apPOL 180' (DRC-2; concentration 20; 180'): 41%
% inhibition Apo pol 5' (DRC-2; concentration 40; 5'): 50%
% inhibition Apol 40' (DRC-2; concentration 40; 40'): 68%
% inhibition ApPOL 90' (DRC-2; concentration 40; 90'): 70%
% inhibition apPOL 180' (DRC-2; concentration 40; 180'): 70%
% inhibition Apo pol 5' (DRC-2; concentration 80; 5'): 47%
% inhibition Apol 40' (DRC-2; concentration 80; 40'): 69%
% inhibition ApPOL 90' (DRC-2; concentration 80; 90'): 74%
% inhibition apPOL 180' (DRC-2; concentration 80; 180'): 77%
DNA Pol (primary screen value of the 186 hits; unit not given; 90 min, 10 µM): 26
DNA Pol (primary screen value; head prints only 'DNA Pol'; 90 min, 10 µM): 26

Source: article PMC9090415, “Discovery of small molecule inhibitors of Plasmodium falciparum apicoplast DNA polymerase” (Journal of Enzyme Inhibition and Medicinal Chemistry, 2022)
